Test results from US11071727B2, “Therapeutic targeting of proteolytic cleavage of the mixed lineage leukemia gene product (MLL1) by taspase1 using kinase inhibitors” (Northwestern University, priority 2018, dated 2021).

Key:
MLL2, TFIIA = assay: Western blot of MLL2 and TFIIA cleavage in 293T cells treated with CX-4945; type: cell-based, human; details: 10 μM, 30 hours
Method: (§1) FIG. 5. CKII inhibitors selectively increase full-length MLL1 protein levels by decreasing the phosphorylation of MLL1 near the cleavage sites. (A) Conservation of the sequences flanking MLL1-CS2, MLL2 and TFIIA cleavage sites and phosphorylated serine and threonine residues after the cleavage sites (highlighted in red). (B) and (C) 293T cells were transfected with vector control (VT), WT, AA or DD reporter constructs of MLL1-p75 or TFIIA. Western blot was performed with anti-Flag antibody for MLL1 (p75: FL, p47: cleaved) or TFIIA (p54: FL, p47: cleaved). (D) and (E) 293T cells were transfected with WT or AA reporter constructs of MLL1-p75 or TFIIA in the presence or absence of HA-taspase1. Western blot was performed with anti-Flag antibody for MLL1 or TFIIA, or anti-HA antibody for taspase1. (F) 293T cells were infected with shRNAs against CKIIα or CKIIα′. Western blot was performed with anti-MLL1C antibody for MLL1 full-length protein levels, and CKIIα or CKIIα′ for knockdown efficiency. (G) 293T cells were treated with DMSO or 10 μM CX-4945 for 30 hours. Cells were harvested and lysed for Western blot against MLL1, MLL2 or TFIIA using β-tubulin as the loading control. (H) and (I) 293T taspase1 KO cells were pre-treated with CX-4945 (3 μM) or TTP22 (10 μM) for 30 hours. […]

MLL1 chromatin occupancy = assay: ChIP-seq of MLL1 occupancy in 293T cells; type: cell-based, human; details: relative to DMSO control
Method: (§2) FIG. 6. CKII inhibition increases genome-wide MLL occupancy and excludes SEC recruitment in MLL leukemia cells. (A) and (B) MLL1C occupancy in CX-4945 or TTP22 treated cells were shown relative to DMSO control. […] (C) Track examples of the MLL1 occupancy at the promoter regions of ELF2 and C6orf211. (D) CX-4945 inhibition of leukemia cell proliferation. Multiple MLL leukemia (orange lines) and non-MLL leukemia (blue lines) were cultured with different doses of CX-4945 for 3 days. Cell number was determined by cell counter and normalized to DMSO control. (E) SEM cells were treated with 0, 5 or 10 μM of CX-4945 for 30 hours and western blot was performed to determine the MLL1 full-length protein levels and MLL-AF4 fusion protein levels. (F) MLL-AFF1, AFF4 and ELL2 occupancies were decreased by CX-4945 treatment in SEM cells.
ChIP-seq Analysis. 5×10^7 cells were used for each ChIP assay, as performed as previously described (Chen et al. 2015). Peaks were called with MACS v1.4.2 (Zhang et al. 2008) using default parameters and were annotated by the HOMER software (Heinz et al. 2010). Metaplots were generated using ngsplot (Shen et al. 2014). […] Differential occupancy of MLL1 was evaluated by edgeR, and peaks with Benjamini-Hochburg adjusted p-values less than 0.05 were considered to be differentially occupied. […]

[1] = system: MLL1 cleavage by taspase1; assay: in vitro taspase1 cleavage assay on lysates of pretreated taspase1 KO cells; type: biochemical, human; details: 293T taspase1 KO cells pretreated 30 hours with CX-4945 (3 μM) or TTP22 (10 μM), compared with DMSO control
Method: as §1, with “control.” for “control. (H) and (I) 293T taspase1 KO cells were pre-treated with CX-4945 (3 μM) or TTP22 (10 μM) for 30 hours.”
in vitro taspase1 cleavage assay. […] Cleavage efficiency was detected by western blot against MLL1C and TFIIA using Hsp90 as the loading control.

[2] = system: MLL leukemia and non-MLL leukemia cells; assay: Leukemia cell proliferation by cell counting; type: cell-based, human; details: panel of MLL and non-MLL leukemia cell lines, increasing concentrations, 3 days
Method: as §2
Cell culture. All of the cell lines were purchased from the American Type Culture Collection (Rockville, Md.). 293T, MCF7 and HCT116 cell lines were maintained in Dulbecco's modified Eagle's medium (DMEM) (Gibco, Gaithersburg, Md.) supplemented with 10% fetal bovine serum (FBS) (Gibco) at 37° with 5% CO2. SEM was maintained in IMDM with 10% FBS. […]
Cell Proliferation Assay. Cell proliferation was measured by cell counting using the Vi-CELL™ Cell Counter (Beckman Coulter Life Sciences, Indianapolis, Ind.). […]

## O=C(O)c1ccc2c(c1)nc(Nc1cccc(Cl)c1)c1ccncc12 [CX-4945, 5-(3-chlorophenylamino)benzo[c][2,6]naphthyridine-8-carboxylic acid]
MLL2, TFIIA
  cleavage of MLL2 or TFIIA: without affecting the cleavage of MLL2 or TFIIA
MLL1 chromatin occupancy
  MLL1 occupancy (genome-wide): global increase of MLL1 occupancy
[1]
  cleavage efficiency by recombinant taspase1 protein: cleavage efficiency was significantly diminished
[2]
  sensitivity of leukemic cell lines (cell number normalized to DMSO): MLL leukemia cells were generally more sensitive than non-MLL leukemic cells
